Legend:
Format in all cases: biochemical
[1] = ORAC hydrophilic and lipophylic method; conditions: value printed for comparison with the samples
Procedure: The system comprises a generating substance of free radical, the AAPH (2,2′-azobis (2-amidinopropane)dihydrochloride) and a fluorescent marker, fluorescein. The antioxidant substance presence in the reaction medium inhibits the decline of the induced fluorescence by the free radical.
The final value is calculated by the regression equation between the sample concentration and the area under the decline curve of fluorescence (AUC). Being expressed the result in micromoles equivalent of Trolox®/g of the sample. AUC=1+f1/f0+f2/f0++f3/f0+ . . . +fn/f0 • f0: initial fluorescence t=0 minutes • fn: fluorescence in each sample in t=n minutes
Hexane (1 mg/mL) was added in the individual samples, the samples were agitated during 3 minutes in vortex and centrifuged during two minutes in 700 g. The supernatant was removed, evaporated under nitrogen flow and analyzed as lipophylic portion. The soil body was analyzed as hydrophilic fraction.
The latter was solubilized in acetone:water (50% v/v), mixed in the ratio indicated for each one of the mixtures and appropriately diluted in 75 nM phosphate buffer pH 7.0. […] The reading was made each minute for one hour with wave length of excitement 485/20 nm and emission 528/20 nm (reading of plates—Multi Detection microplate reader SynergyBIOTEK). […]

[2] = Lipoperoxidation (liposomes + AAPH, xylenol orange); conditions: for protection against lipoperoxidation: active ingredient alone, 100 μg/ml (0.01%), 3 hours of reaction
Text: The methodologies selected for planning and carrying out the tests for the antioxidant efficacy of the complex of the present invention aimed at reproducing the protective effect of membranes (lipids), DNA and proteins, and were fast screening methodologies, such as: • DPPH: the test is based on the reduction reaction of the diphenyl picryl hydrazyl (DPPH) free radical in ethanolic medium, with the raw materials or substances to be analyzed, wherein the DPPH radical is reduced by said substances, altering the tone and enabling the antioxidant protection to be measured. This is a simple assay, commonly used for screening substances, since it measures one of the main mechanisms of antioxidant action—proton donation for stabilization of the DPPH radical. • Lipoperoxidation: in this test, phosphatidylcholine liposomes, which structure resembles the cell membrane since phosphatidylcholine is one of the lipid components of cell membranes, are incubated with the AAPH radical, which is capable of promoting the oxidation of these membranes, forming lipid hydroperoxides. These hydroperoxides promote the oxidation of Fe^2+ to Fe^3+, which reacts with xylenol orange, forming a yellowish compound. The active ingredients incubated with the liposomes decrease the membrane oxidation, consequently decreasing the reaction with xylenol orange and the formation of color. This test provides a result for the % protection against lipoperoxidation, and is closer to the physiological situation, since it mimics the attack to cell membranes. • Protein Oxidation: this experiment uses BSA (bovine serum albumine) as a substrate and a hydroxyl radical generating system (Fenton reaction: H2O2+ iron), which can generate hydroperoxides in the presence of the protein, due to the oxidation of the amino acid side chain. These hydroperoxides promote the oxidation of Fe2+ to Fe3+, which reacts with xylenol orange, forming a yellowish compound. […]

[3] = DPPH free radical neutralization; conditions: amount required to neutralize 50% of DPPH radicals
Text: This methodology is used to assess the IC-50 value, i.e., the amount of active ingredient required to neutralize 50% of the radicals formed in the reaction medium.
This assay is used to assess the active ingredient's ability to decrease the formation of free radicals. A specific radical (DPPH) produces a purple coloring in ethanolic solution. Antioxidant active ingredients capable of donating protons (H^+) decrease the formation of radicals, consequently decreasing the purple coloring.

Compound	antioxidant activity of comparator [1]	protection against lipoperoxidation [2]	concentration of the active ingredient in isolation required for protection similar to the mixture, relative to its concentration in the mixture ([2]; lipoperoxidation, between 60 and 70% protection, mixture 10+10+10 μg/ml)	IC-50 (mg/ml) [3]	IC-50 (μg/ml) [3]
Cc1c(C)c2c(c(C)c1O)CCC(C)(C(=O)O)O2 (centres unmarked) [Trolox®]	400 µmol/g	–	–	–	–
Cc1c(C)c2c(c(C)c1O)CC[C@@](C)(CCC[C@H](C)CCC[C@H](C)CCCC(C)C)O2 [Tocopherol, alpha-tocopherol]	–	95.53%	at least 5 times higher	0.019 mg/mL	19 µg/mL
CC(C)=CCC/C(C)=C/C=C/C(C)=C/C=C/C(C)=C/C=C/C=C(C)/C=C/C=C(C)/C=C/C=C(\C)CCC=C(C)C [Lycopene]	–	25.30%	–	0.208 mg/mL	208 µg/mL

From patent US8383168B2, “Antioxidant complex, cosmetic and pharmaceutical compositions containing said complex and use of said complex” (Natura Cosmeticos S.A., priority 2008, dated 2013)
